A word on the pKb: it is −log10 of the Kb, conventionally taken in molar units.

8 molecules from US8829028B2, “5-HT4 receptor antagonists for the treatment of heart failure” (Serodus AS, priority 2002, dated 2014) can be followed below.

Where “and” joins values, the source holds several entries; their conditions need not be identical. Identical values can stand only once. Counter-ions that a name gives are not always drawn.

For experiment [1], the system named is 5-HT2A receptor (Rattus norvegicus). Particulars: ketanserin 0.1 μmol/l. The procedure: The muscles were field stimulated with alternating polarity at 1 Hz with impulses of 5 msec duration and current about 20% above individual threshold (10-15 mA, determined in each experiment). The isometrically contracting muscles were stretched to the maximum of their length-tension curve. The force was recorded and analysed as previously described (Skomedal et al., 1997, J. Pharmacol. Exp. Ther. 280: 721-729). The muscles were allowed to equilibrate for 90 minutes. […] Averaged contraction-relaxation cycles (CRC) were calculated for different experimental periods, and these cycles were used to determine descriptive parameters like maximal development of force (dF/dt)max, time to peak force (TPF) and time to relaxation to 20% level (TR2O). Relaxation time (RT) was calculated as TR2O-TPF. (dF/dt)max was used as an index of contractility. Inotropic responses induced by agonists were expressed by increase in (dF/dt)max. […] Lusitropic responses were expressed as reduction in RT. […]
Chain of 5-HT2A receptor (Rattus norvegicus) (Q62758 whole entry): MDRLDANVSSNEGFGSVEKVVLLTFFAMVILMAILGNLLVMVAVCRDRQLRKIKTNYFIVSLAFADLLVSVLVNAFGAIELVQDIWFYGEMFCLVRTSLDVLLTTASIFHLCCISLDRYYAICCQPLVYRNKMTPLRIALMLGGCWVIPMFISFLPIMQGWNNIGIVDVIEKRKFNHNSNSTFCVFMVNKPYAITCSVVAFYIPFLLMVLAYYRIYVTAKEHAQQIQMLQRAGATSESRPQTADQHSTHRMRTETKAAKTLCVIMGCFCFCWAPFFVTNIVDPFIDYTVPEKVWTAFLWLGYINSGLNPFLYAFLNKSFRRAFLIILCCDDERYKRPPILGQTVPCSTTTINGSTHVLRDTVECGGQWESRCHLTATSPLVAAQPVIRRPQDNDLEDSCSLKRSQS
The responses for each concentration of agonist were generally calculated as percent of maximal response. […] The horizontal positioning of the concentration-response curves was expressed as pEC50-values (=−log EC50). Data are expressed as mean±standard error of the mean (SEM) and the number of animals expressed as n. The significance levels of differences were calculated according to Students t-test. […]

The subject of experiment [2] is post-infarction congestive heart failure (CHF) rats. The experiment is described as follows: Six-week treatment of post-infarction CHF rats with a 5-HT4 antagonist, papillary muscle function afterwards. Type of experiment: in vivo, rat. The following applies: 50 mM SB207266 in s.c. miniosmotic pumps, six weeks. The text has this:
An extensive myocardial infarction (MI) was induced in 320 g male Wistar rats under anaesthesia (68% N2O, 29% O2 and 2-3% Isofluran) by a proximal ligation of the left coronary artery (Sjaastad et al. 2003, supra). Three days later, rats were included in the study if the rats had both clinical signs of congestive heart failure (tachypnoe and forced ventilation) and a large myocardial infarction as verified by echocardiography. Rats included in the study were randomized blindly to placebo or treatment. […]
After six weeks of treatment, the animals were again placed under Isofluran anaesthesia (68% N2O, 29% O2 and 2-3% Isofluran) with temperature control for echocardiographic and hemodynamic measurements, followed by euthanasia. Posterior left ventricular papillary muscles were then prepared, mounted in organ baths, equilibrated and field stimulated at 1 Hz (Sjaastad et al., 2003 supra) and the contraction-relaxation cycles (CRCs) were recorded and analysed as previously described with respect to maximal developed force (Fmax), maximal development of force (dF/dt)max, time to peak force (TPF), time to relaxation to 20% level (TR20) and relaxation time (RT=TR20-TPF). […]

The target of experiment [3] is T1, 5-HT4 receptor (Rattus norvegicus, UniProt Q62758).
T1 construct: The papillary muscles were mounted in organ baths; from tissue; host or cells: rat posterior left ventricular papillary muscle (post-MI or aortic-banding heart failure)
T1 sequence (Q62758 whole entry): as above
The experiment in a line: Antagonism of the serotonin inotropic response by 5-HT4 antagonists in post-MI rat papillary muscle (reversal, curve shift, Schild Kb). Type of experiment: cell-based. The following applies: for block of the inotropic response to serotonin: each antagonist added as printed. The protocol:
(§1) The muscles were field stimulated with alternating polarity at 1 Hz with impulses of 5 msec duration and current about 20% above individual threshold (10-15 mA, determined in each experiment). The isometrically contracting muscles were stretched to the maximum of their length-tension curve. The force was recorded and analysed as previously described (Skomedal et al., 1997, J. Pharmacol. Exp. Ther. 280: 721-729). The muscles were allowed to equilibrate for 90 minutes. […] Averaged contraction-relaxation cycles (CRC) were calculated for different experimental periods, and these cycles were used to determine descriptive parameters like maximal development of force (dF/dt)max, time to peak force (TPF) and time to relaxation to 20% level (TR2O). Relaxation time (RT) was calculated as TR2O-TPF. (dF/dt)max was used as an index of contractility. Inotropic responses induced by agonists were expressed by increase in (dF/dt)max. RT was used as index of relaxation. Lusitropic responses were expressed as reduction in RT. Mechanical response at the end of the equilibrium period was used as the control response.
(§2) Agonist was added cumulatively or as a single bolus directly to the organ baths and was completely mixed in the solution within 2-3 seconds. […] The different agonists were added directly to the organ baths in increasing concentrations until supramaximal concentrations of agonist were obtained with respect to maximal inotropic response.
The responses for each concentration of agonist were generally calculated as percent of maximal response. The concentration-response curves constructed from papillary muscle experiment were constructed according to Ariens and Simonis (1964, supra), by estimating centiles (EC10 to EC100) for each single experiment and calculating the corresponding means. This calculation provides mean curves that express the response as fractional response or percent of maximum and display horizontal positioning and the correct mean slope of the curves. The horizontal positioning of the concentration-response curves was expressed as pEC50-values (=−log EC50). Data are expressed as mean±standard error of the mean (SEM) and the number of animals expressed as n. The significance levels of differences were calculated according to Students t-test. P<0.05 is considered statistically significant. The inhibition constants Kb were calculated from the Schild equation, based on the relative shifts of the concentration-response curves for receptor stimulation.

Experiment [4] concerns papillary muscles from Chronic heart failure rats. The experiment is described as follows: Inotropic and lusitropic response of isolated papillary muscles from post-MI Chronic heart failure rats (organ bath, 1 Hz). Type of experiment: cell-based, rat. The following applies: for RT (TR20−TPF), relaxation time / TPF (time to peak force) / TR20 (time to relaxation to 20% level): CHF, serotonin 10 μmol/l, then isoprenaline 100 μmol/l. The protocol: (§3) Male, Wistar rats (Mollegaard Breeding and Research Centre, Skensved, Denmark), weighing about 320 g were intubated and ventilated with 68% N2O, 29% O2 and 2-3% Isofluran (Abbot Laboratories, USA). An extensive myocardial infarction (MI) was induced by a proximal ligation of the left coronary artery. Six weeks later the rats were anaesthetized and ventilated on the respirator with 2.2% Isofluran. Left ventricular pressures were measured (Sjaastad et al., 2000, J. Appl. Physiol, 89: 1445-1454), and Chronic heart failure rats were included in the study if left ventricular end diastolic pressure (LVEDP) was >15 mm Hg. […] The sham-operated animals (SHAM) were subjected to the same surgical procedure but the coronary artery was not ligated.
(§4) Hearts were isolated from the anaesthetized animals (see above) and carefully dissected free of connective tissue and transferred to ice cold 0.9% NaCl and weighed. The aorta was cannulated, and the coronaries were perfused at 31° C. with a relaxing solution containing: (mmol/l) NaCl 118.3; KCl 3.0; CaCl2 0.5; MgSO4 4.0; KH2PO4 2.4; NaHCO3 24.9; glucose 10.0; mannitol 2.2 and equilibrated with 95% O2/5% CO2 at 31° C. (pH 7.4). Posterior left ventricular papillary muscle was ligated
(§5) The muscles were transported to a separate laboratory and mounted in organ baths. […] The papillary muscles were mounted in organ baths containing the relaxing solution and allowed to adapt at 31° C. for about 20 minutes before the solution was changed to one containing the following (in mmol/l): NaCl 119.2; KCJ 3.0; CaCl2 2.0; MgSO4 1.2; KH2PO4 2.4; NaHCO3 24.9; glucose 10.0; mannitol 2.22 and equilibrated with 95% O2/5% CO2 at 31° C. (pH 7.4).
as §1, §2
(§6) The responses for each concentration of agonist were generally calculated as percent of maximal response. The concentration-response curves constructed from papillary muscle experiment were constructed according to Ariens and Simonis (1964, supra), by estimating centiles (EC10 to EC100) for each single experiment and calculating the corresponding means. This calculation provides mean curves that express the response as fractional response or percent of maximum and display horizontal positioning and the correct mean slope of the curves. The horizontal positioning of the concentration-response curves was expressed as pEC50-values (=−log EC50).

Experiment [5] concerns papillary muscles from sham-operated rats. The experiment in a line: Inotropic and lusitropic response of isolated papillary muscles from sham-operated rats. In kind it is cell-based, rat. Particulars: for RT (TR20−TPF), relaxation time / TPF (time to peak force) / TR20 (time to relaxation to 20% level): Sham, N=6, serotonin 10 μmol/l, then isoprenaline 100 μmol/l. The protocol: as §3, §4, §5, §1, §2, §6

Experiment [6] relates to papillary muscles from MInf rats. The experiment in a line: Inotropic response to serotonin in papillary muscles from MInf rats (infarction without CHF). The following applies: serotonin 10 μM. Type of experiment: cell-based, rat. The text has this:
The magnitude of the response correlated positively with infarction size up to 30-40% of the inner myocardial surface in MInf animals (FIG. 8A). In MInf hearts with infarct size 30-40% the inotropic effect was of the same magnitude as in CHF hearts which all had infarct size >40%. A positive correlation with infarction size was also observed for 5-HT4(b) and ANP mRNA expression, whereas 5-HT2A mRNA levels were unchanged (FIG. 8B).

Experiment [7] deals with T1, 5-HT4 receptor. The experiment in a line: 5-HT4 receptor-mediated inotropic response in papillary muscle of CHF rat 6 weeks after aortic banding. In kind it is cell-based. Particulars: serotonin 10 μM; prazosin, timolol, atropine 1 μM each.
Protocol: Trans-aortic constriction (aortic banding) of the ascending aorta was induced in 200 g male Wistar rats under anaesthesia, induced by 63% N2O, 32% O2 and 5% Isoflurane and maintained by 66% N2O, 33% O2 and 1-2% Isoflurane. A right-sided thoracotomi was performed through a 3-4 cm long cutaneous incision, the pericardium was opened and the ascending aorta identified and dissected free of surrounding tissue. A ligature was knit around the ascending aorta and a metal probe with diameter 0.9 mm. The metal probe was then removed. The result was a constriction of the ascending aorta with internal diameter about 0.9 mm. The thorax was then closed with 3-0 silk sutures and the skin closed with Dexon 1 sutures. […]
Papillary muscle was extracted from a CHF rat 6 weeks after aortic banding as described above. osterior left ventricular papillary muscle was prepared, mounted in organ bath, equilibrated and field stimulated at 1 Hz (Sjaastad et al. 2003 supra), and the contraction-relaxation cycles (CRCs) were recorded and analysed as previously described (Skomedal et al. 1997, J. Pharmacol Exp Ther 280: 721-729) (Sjaastad et al., 2003, supra) with respect to maximal developed force (Fmax), maximal development of force (dF/dt)max, time to peak force (TPF), time to relaxation to 20% level (TR20) and relaxation time (RT=TR20-TPF).

Turning to `O=C(c1ccc(F)cc1)C1CCN(CCn2c(=O)[nH]c3ccccc3c2=O)CC1` [Ketanserin, 3-[2-[4-(4-fluorobenzoyl)-1-piperidinyl]ethyl]-2,4(1H,3H)-quinazolinedione], in experiment [1], the “shift of the concentration-response curve for serotonin” value was “did not shift”.
Turning to `CCCCN1CCC(CNC(=O)c2c3n(c4ccccc24)CCCO3)CC1` [SB207266, N-[(1-butyl-4-piperidinyl)methyl]-3,4-dihydro-2H-[1,3]oxazino[3,2-a]indole-locarboxamide hydrochloride], the “maximal inotropic response to β-adrenoceptor stimulation (myocardial function)” value in experiment [2] (vs placebo) is listed as “trend towards normalisation”. In addition, in experiment [2] (preliminary data, not shown), the “duration of the contraction-relaxation cycle” value is listed as “trend towards normalisation”.
Take `O=C(OCCN1CCCCC1)c1c[nH]c2ccccc12` [SB203186, 1-piperidinyl-ethyl-1H-indole-3-carboxylate]: in experiment [3] (6 week post MI rats, 5 nM antagonist), the negative-log Kb (pKb) is 9.1. Besides, the “block of the inotropic response to serotonin” value in experiment [3] (6 week post MI rats) was “block the inotropic response to serotonin”.
Regarding `COc1cc(COc2cc(N)c(Cl)cc2C(=O)CCC2CCN(CCNS(C)(=O)=O)CC2)cc(OC)c1` [RS39604, 1-[4-amino-5-chloro-2-(3,5-dimethoxybenzyloxy)phenyl]-3 [1-[2-[(methylsulf-onyl)amino]ethyl]-4-piperidinyl]-1-propanone hydrochloride], in experiment [3] (6 week post MI rats, 5 nM antagonist, read-out: pKb (converted)), the Kb is 631 pM. The “block of the inotropic response to serotonin” value in experiment [3] (6 week post MI rats) is “block the inotropic response to serotonin”.
With `CC(C)NC[C@H](O)c1ccc(O)c(O)c1` [isoprenaline, (−)-isoprenaline hemisulphate], in experiment [4] (10 μmol/l isoprenaline as printed, SEM, n=10), the “inotropic effect (increase in contractile force)” value is 60.4±5.8% and 58.5±7%. The “RT (TR20−TPF), relaxation time” value in experiment [4] (n=10, listed as ISO) is listed as 81.0 ± 1.8 ms; in experiment [4] (n=10, listed as Iso), 76.2 ± 1.8 % of control; in experiment [5] (listed as ISO), 75.0 ± 2.5 ms; in experiment [5] (listed as Iso), 69.4 ± 3.2 % of control. The “TPF (time to peak force)” value in experiment [4] (n=10, listed as ISO) is reported as 123.1 ± 1.6 ms; in experiment [4] (n=10, listed as Iso) it was 83.2 ± 1.7 % of control; in experiment [5] (listed as ISO) it was 109.3 ± 2.7 ms; in experiment [5] (listed as Iso), 87.4 ± 2.3 % of control. Further, the “TR20 (time to relaxation to 20% level)” value in experiment [4] (n=10, listed as ISO) is given as 204.1 ± 2.9 ms; in experiment [4] (n=10, listed as Iso), 80.3 ± 1.9 % of control; in experiment [5] (listed as ISO) it was 174.0 ± 4.9 ms; in experiment [5] (listed as Iso), 74.5 ± 1.7 % of control. In experiment [5] (isoprenaline, sham-operated animals, mean±SEM, n=6), the positive inotropic response was 111.6±8.6%.
As for `Cl.NCCc1c[nH]c2ccc(O)cc12` [serotonin, 5-hydroxytryptamine hydrochloride], the “increase in contractile force” value in experiment [4] (10 μmol/l serotonin, SEM, n=10) is 44.5±2.9%. Also, the “positive inotropic response above control level” value in experiment [4] (10 μmol/l serotonin, carbachol experiment, mean±SEM, n=5) came out at 33.7±6.6%. For the same molecule, in experiment [4] (10 μmol/l serotonin, prazosin, atropine and timolol present), the “time from addition of serotonin to maximal inotropic response” value lay in the range of 1 to 2 min. For the same molecule, in experiment [3] (pooled average with and without GR113808, SEM, n=12), the “maximum inotropic response induced by serotonin” value was 18.7±2.4%. Moreover, the “positive inotropic response to serotonin” value in experiment [5] (10 μmol/l serotonin, sham-operated animals, n=6) is “not seen in sham-operated animals”. Besides, the “inotropic response to serotonin” value in experiment [6] was “elicited an inotropic response qualitatively similar to the response observed in CHF animals”; in experiment [7] it was “positive inotropic response comparable in magnitude and characteristics to the positive inotropic response to 100 μM isoproterenol”.
Regarding `C[N+](C)(C)CCOC(N)=O` [Carbachol, carbamylcholine], in experiment [4] (30 μmol/l carbachol added after 10 μmol/l serotonin, p<0.01), the “inotropic response to serotonin after carbachol (reversal)” value is given as 4.8±6.5%.
For `CN1[C@@H]2CC[C@H]1CC(OC(=O)C(CO)c1ccccc1)C2.CN1[C@@H]2CC[C@H]1CC(OC(=O)C(CO)c1ccccc1)C2.O=S(=O)(O)O` (stereo partly shown) [Atropine, atropine sulfate], the “inotropic response to serotonin restored by atropine” value in experiment [4] (1 μmol/l atropine after serotonin and carbachol, p>0.06 vs serotonin alone) is on record as 45.1±5.1%. Further, the “effect on serotonin-induced changes of TPF, TR2O and RT (contraction-relaxation cycle characteristics)” value in experiment [4] (cumulative 10 μmol/l serotonin, 30 μmol/l carbachol, 1 μmol/l atropine) is given as “re-established the contraction-relaxation cycle characteristics”.
